According to PMC3407958 (Pharmacotherapy, 2010):
Where two headings read alike, the source gives them in different places. Marks after values point to notes of the source that are not given here.

Tests used:
clinical = conditions: human, in vivo
[1] = human, in vivo
[2] = human, in vivo; remark: listed apart in the source
[3] = system: intestinal and hepatic CYP3A; conditions: cited from earlier work
CYP3A = format: in vivo, human (healthy volunteers); conditions: for Cl/F / AUC(0-inf): geometric mean (90% CI); for AUC(0-inf): AUC0-∞, midazolam 8 mg single oral dose
[4] = three weeks of garlic caplet supplementation; cited from earlier work
[5] = Post-Echinacea/Pre-Echinacea, GMR (90% CI)
[6] = Post-Echinacea/Pre-Echinacea, GMR (90% CI), listed as Midazolam
[7] = midazolam 8 mg oral, 28 days of echinacea, P > 0.05

In the case of `Cc1cccc(C)c1OCC(=O)N[C@@H](Cc1ccccc1)[C@@H](O)C[C@H](Cc1ccccc1)NC(=O)[C@H](C(C)C)N1CCCNC1=O` [lopinavir], the Tmax (clinical) is reported as 2 h, the Tmax [1] is reported as 2 h and the “T ½” value [2] is reported as 9.5 (7.4–11.6) hr.

In the case of `Cc1ncc2n1-c1ccc(Cl)cc1C(c1ccccc1F)=NC2` [midazolam], the “Increase in intestinal availability of midazolam” value ([3]; after E purpurea 1600 mg total daily dose for 8 days) is listed as 85%, the “Increase in oral availability of midazolam” value ([3]; after echinacea 400 mg 4 times daily for 8 days, P = 0.028) is listed as ~43% and the Cl/F (CYP3A; Post-Echinacea (28 days), midazolam 8 mg oral) is listed as 77 (55–98) mL/hr. The Tmax (CYP3A; Post-Echinacea (28 days), midazolam 8 mg oral, median (range)) was 0.5 (0.5–1.5) ^c hr, the “AUC0-∞ geometric mean ratio” value (CYP3A; [5]) was 0.73 (0.61, 0.85) and the “Cl/F geometric mean ratio” value (CYP3A; [5]) was 1.37 (1.10, 1.63). The “Cmax geometric mean ratio” value (CYP3A; [5]) was 0.77 (0.58–0.96), the “T ½ geometric mean ratio” value (CYP3A; [5]) was 0.55 (0.40, 0.70) and the “AUC0-∞ geometric mean ratio” value (CYP3A; [6]) was 0.73 (0.61–0.85). For the same molecule, the “Cl/F geometric mean ratio” value (CYP3A; [6]) was 1.37 (1.10–1.63), the “T ½ geometric mean ratio” value (CYP3A; [6]) was 0.55 (0.40–0.70) and the Cl/F (CYP3A; Pre-Echinacea, midazolam 8 mg oral) was 56 (46–66) mL/hr. For the same molecule, the “Change in midazolam exposure after E purpurea” value (CYP3A; after 28 days of E purpurea, P = 0.008) was −27%, the “Increase in midazolam apparent oral clearance after E purpurea” value (CYP3A; after 28 days of E purpurea, P = 0.02) was 37% and the “Reduction of midazolam half-life after E purpurea” value (CYP3A; after 28 days of E purpurea, P = 0.051) was 45%. The Tmax (CYP3A; human, plasma, po, 8 mg) was 0.5 h, the AUC(0-inf) (CYP3A; human, plasma, po, 8 mg, Post-Echinacea (28 days, 500 mg three times daily)) was 104 ng·h/mL and the AUC(0-inf) (CYP3A; human, plasma, po, 8 mg, Pre-Echinacea) was 143 ng·h/mL. For the same molecule, the “Change of Cmax after echinacea administration” value (CYP3A; [7]) was “unchanged” and the “Change of Tmax after echinacea administration” value (CYP3A; [7]) was “unchanged”.

With `CC(C)c1nc(CN(C)C(=O)N[C@H](C(=O)N[C@@H](Cc2ccccc2)C[C@H](O)[C@H](Cc2ccccc2)NC(=O)OCc2cncs2)C(C)C)cs1` [ritonavir] the “T ½” value [2] was 5.34 (4.46–6.22) hr and the Tmax [2] was 1.8 (0–4.0) ^c hr.

In the case of `CC(C)(C)NC(=O)[C@@H]1C[C@@H]2CCCC[C@@H]2CN1C[C@@H](O)[C@H](Cc1ccccc1)NC(=O)[C@H](CC(N)=O)NC(=O)c1ccc2ccccc2n1` [saquinavir], the “Decrease in AUC of saquinavir” value [4] is listed as 51%.
